Experimental data: patent US4124703A, “Luliberin analogs” (Imperial Chemical Industries Limited, priority 1976, dated 1978)
Non-standard residues stand in square brackets, D forms with d. Residues, ends and D or L forms follow the SMILES beside them. pGlu = O=C1CC[C@@H](C(=O)O)N1; azaGly = NNC(=O)O

Assays:
[1] = overt toxic effects at multiples of the minimum active dose; type: in vivo; settings: dosed at 20 times its minimum effective dose
luliberin = settings: literature: Coy et al., Molecular and Cellular Endocrinology, 1976, 5, 201-208; cited from earlier work

Compound | overt toxic effects [1] | luliberin antagonist properties (luliberin)
CC(C)C[C@H](NC(=O)[C@@H](Cc1ccccc1)NC(=O)[C@H](Cc1ccc(O)cc1)NC(=O)[C@H](CO)NC(=O)[C@H](Cc1c[nH]c2ccccc12)NC(=O)[C@@H](Cc1ccccc1)NC(=O)[C@@H]1CCC(=O)N1)C(=O)N[C@@H](CCCNC(=N)N)C(=O)N1CCC[C@H]1C(=O)NNC(N)=O [Example 1, L-pyroglutamyl-D-phenylalanyl-L-tryptophyl-L-seryl-L-tyrosyl-D-phenylalanyl-L-leucyl-L-arginyl-L-prolylazaglycine amide] ([pGlu][dF]WSY[dF]LRP[azaGly]-NH2) | no overt toxic effects | –
[D-Phe^2, D-Phe^6 ] luliberin | – | has luliberin antagonist properties
